Our source for the LD50 and ED50 values is US5059607A, “Imidazolyl benzisoquinolines useful as 5-HT3 receptor antagonists” (Ono-Pharmaceutical Co., Ltd., priority 1989, dated 1991).

Structures are written as SMILES. Counter-ions that a name gives are not always drawn. Like-named read-outs stand apart in the source and are kept apart here. Where only a bound is given, the exact number is not on record here.

A short description of series [1]: Acute toxicity (LD50) in mice. To be noted: mouse, in vivo.
In another series the target is T1, 5-HT3 receptor (Rattus norvegicus, UniProt P35563).
T1 construct: 5-HT3 receptor in vivo in rats; from tissue; host or cells: whole anesthetized male Wistar rat (in vivo; endogenous receptor, no preparation isolated)
T1 sequence (P35563 24-483): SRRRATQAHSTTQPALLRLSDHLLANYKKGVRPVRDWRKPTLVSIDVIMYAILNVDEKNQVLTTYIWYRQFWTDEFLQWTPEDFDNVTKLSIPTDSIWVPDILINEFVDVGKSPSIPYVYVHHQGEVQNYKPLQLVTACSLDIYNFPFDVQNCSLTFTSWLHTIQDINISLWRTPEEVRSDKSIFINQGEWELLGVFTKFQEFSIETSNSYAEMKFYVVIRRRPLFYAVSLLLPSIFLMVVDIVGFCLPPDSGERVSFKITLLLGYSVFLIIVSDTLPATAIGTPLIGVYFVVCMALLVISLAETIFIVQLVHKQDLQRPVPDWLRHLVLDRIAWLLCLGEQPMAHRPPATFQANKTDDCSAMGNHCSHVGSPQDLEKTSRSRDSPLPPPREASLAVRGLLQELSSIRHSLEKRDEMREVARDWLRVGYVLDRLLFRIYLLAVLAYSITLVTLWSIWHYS
The series can be described thus: Antagonistic activity against 5-HT3 receptor in vivo in rats (suppression of 5-HT-induced reflex bradycardia). To be noted: urethane-anesthetized male Wister rat. The procedure: Male Wister rat was urethane-anesthetized and fixed. Cannulas were inserted in the carotid artery and in the thigh vein as used for the recording of blood pressure and heart beat, and for the administration of the test compounds, respectively.
Several amounts of a compound of the present invention were administered from the vein or to the duodenum. 5-HT was administered rapidly to the vein, 2 mins. after administration of the compound of the present invention.

The mark [2] stands for this setting: iv, 5-HT i.v. 2 mins after compound, read-out: IC50 i.v. (antagonistic activity against 5-HT3 receptor in vivo in rats).

With `Cc1[nH]cnc1Cn1ccc2ccc3ccccc3c2c1=O.Cl` [Example 1, 2-(5-methylimidazol-4-yl-methyl)-1,2-dihydrobenz[1,2-h]isoquinolin-1-one hydrochloride], the LD50 – broadly, the dose expected to kill half of the subjects tested – in series [1] (intravenous administration, read-out: acute toxicity (LD50), intravenous) is 94000 µg/kg; in series [1] (oral administration, read-out: acute toxicity (LD50), oral), more than 800000 µg/kg. Further, the ED50 on 5-HT3 receptor (i.d. (to the duodenum), read-out: ID50 i.d. (antagonistic activity against 5-HT3 receptor in vivo in rats)) came to 7.5 µg/kg; on 5-HT3 receptor (setting [2]), 0.29 µg/kg.

In the case of `COc1cc2ccccc2c2c(=O)n(Cc3nc[nH]c3C)ccc12.Cl` [1(a), 2-(5-methylimidazol-4-ylmethyl)-5-methoxy-1,2-dihydrobenz[1,2-h]isoquinolin-1-one hydrochloride], at 5-HT3 receptor (setting [2]), the ED50 worked out at 2.4 µg/kg.

On to `Cc1[nH]cnc1Cn1ccc2c(C)cc3ccccc3c2c1=O` [1(e), 2-(5-methylimidazol-4-ylmethyl)-5-methyl-1,2-dihydrobenz[1,2-h]isoqionolin-1-one hydrochloride], for which the ED50 on 5-HT3 receptor (setting [2]) amounted to 1.19 µg/kg.

With `Cc1[nH]cnc1Cn1ccc2c(O)cc3ccccc3c2c1=O.Cl` [Example 1(f), 2-(5-methylimidazol-4-ylmethyl)-5-hydroxy-1,2-dihydrobenz[1,2-h]isoquinolin-1-one hydrochloride], the ED50 on 5-HT3 receptor (setting [2]) is 0.62 µg/kg. For `Cc1[nH]cnc1Cn1ccc2cc(Br)c3ccccc3c2c1=O.Cl` [1(g), 2-(5-methylimidazol-4-ylmethyl)-6-bromo-1,2-dihydrobenz[1,2-h]isoquinolin-1-one hydrochloride], the ED50 at 5-HT3 receptor (setting [2]) came out at 5.87 µg/kg.

Consider `Cc1[nH]cnc1Cn1ccc2cc(C)c3ccccc3c2c1=O.Cl` [1(d), 2-(5-methylimidazol-4-ylmethyl)-6-methyl-1,2-dihydrobenz[1,2-h]isoquinolin-1-one hydrochloride], for which, on 5-HT3 receptor (setting [2]), the ED50 came to 0.89 µg/kg.
